Data set [1] relates to DU145 cells. Briefly: Anti-proliferative activity on DU145 in complete medium. Format: cell-based. The following applies: DU145 (no androgen receptor), 144 h, up to 10,000 nM, Cell-Titer-Glow. On the procedure:
It is used to evaluate the selectivity of the compounds for androgen receptor expressing cells. No activity of the compounds is expected. • The cells of the DU145 line (ATCC HTB-81) are seeded at 800 cells/well in 90 μl of complete medium in 96-well plates coated with poly-D-lysine (Biocoat, Costar). • Treatment of the cells: 24 h after the seeding, the cells are treated with 10 μl/well of compound diluted in the culture medium. The concentrations used are the following: 1 nM/10/30/100/300/1000/3000/10,000 nM. The cells are incubated for 144 h at 37° C., 5% CO2. • Reading: After incubation for 6 days, cell proliferation was determined by Cell-Titer-Glow (CTG) Luminescent Cell Viability Assay • Results: The experiments are carried out in duplicate and the best compounds are tested twice. A concentration value inhibiting the cell proliferation by 50% (IC50) is calculated.

Data set [2] is described as follows: Evaluation of solubility. Format: physicochemical. The settings on record: aqueous buffer, kinetic from dmso stock; 100 mM potassium phosphate buffer pH 7.4, 0.1% DMSO, target 100 μM, 1 hour room temperature, LC-MS/MS. The procedure: Test compounds were prepared as stock solutions at 100 mM in DMSO. The stock solutions were diluted, in duplicate, into 100 mM potassium phosphate buffer (pH 7.4) to a target concentration of 100 μM with a final DMSO concentration of 0.1%. The solutions were shaken at 1000 rpm for 1 hour at room temperature followed by centrifugation for 10 minutes at 1200 rpm to precipitate un-dissolved particles. The supernatants were transferred to new tubes and the samples were further prepared as follows: • Undiluted: 5 μL of supernatant to 95 μL of ACN containing internal standard (IS) • 1:10 diluted: 10 μL of the supernatant into 90 μL K-buffer, mix, then transfer 5 μL of 1:10 diluted samples to 95 μL ACN containing IS • 1:100 diluted: 10 μL of the supernatant into 990 μL K-buffer, mix, then transfer 5 μL of 1:100 diluted samples to 95 μL of ACN containing IS
Samples (undiluted, 1:10 diluted, and 1:100 diluted) along with the standards were analyzed by LC-MS/MS.

The subject of data set [3] is LNCaP cells. The data set can be described thus: Anti-proliferative activity on LNCaP in complete medium. The settings on record: Homo sapiens, 144 h. Format: cell-based. The procedure: The anti-proliferative activity of the compounds of the present invention is determined on LNCaP in complete medium by applying the following experimental procedure:
The LNCaP cell type (ATCC, 1740) originates from a prostate carcinoma. This line expresses the androgen receptor and is hormone-dependent.
Maintenance of the LNCaP line is carried out in complete culture medium: RPMI, 10% of fetal calf serum, 2 mM glutamine, 100 U/ml penicillin, 0.1 mg/ml of streptomycin and 0.01M HEPES, 1 mM sodium pyruvate, […]. • Seeding the plates:
The LNCaP line is seeded at 20,000 cells/well in 90 μl of complete medium in 96-well plates coated with poly-D-lysine (Biocoat, Costar). • Treatment of the cells: 24 h after the seeding, the cells are treated with 10 μl/well of compound diluted in the culture medium. The concentrations used are the following: 1 nM/10/30/100/300/1000/3000/10,000 nM. The cells are incubated for 144 h at 37° C., 5% CO2. • Reading: After incubation for 6 days, cell proliferation was determined by Cell-Titer-Glow (CTG) Luminescent Cell Viability Assay. • Results: The experiments are carried out in duplicate and the best compounds are tested twice. […] Anti-Proliferative Activity on DU145 in Complete Medium

[4] abbreviates: complete medium, 144 h incubation, Cell-Titer-Glow, read-out: IC50 on the LNCaP cells in culture (inhibition of cell proliferation by 50%).
[5] abbreviates: read-out: IC50 on the LNCaP cells in culture (inhibition of cell proliferation by 50%), LNCaP, complete medium, 144 h incubation, Cell-Titer-Glow.

Converted amounts (≈) assume the structure as drawn. Where two headings read alike, the source gives them in different places.

Take `CC1(C)C(=O)N(c2ccc(C#N)c(C(F)(F)F)c2)C(=O)N1C/C=C\Cn1cc(-c2ccc(C#N)c(C(F)(F)F)c2)cn1` [Example 1, (Z)-4-(3-(4-(4-(4-cyano-3-(trifluoromethyl)phenyl)-1H-pyrazol-1-yl)but-2-en-1-yl)-4,4-dimethyl-2,5-dioxoimidazolidin-1-yl)-2-(trifluoromethyl)benzonitrile]: the “IC50 on DU145 cells (anti-proliferative effect)” value (from here on “IC50 on DU145 cells”) in data set [1] is reported as “no measurable IC50”. On the same count and under the same terms, the entry for `CC1(C)C(=O)N(c2ccc(S(C)(=O)=O)c(C(F)(F)F)c2)C(=O)N1C/C=C\Cn1cc(-c2ccc(C#N)c(C(F)(F)F)c2)cn1` [Example 2, (Z)-4-(1-(4-(5,5-dimethyl-3-(4-(methylsulfonyl)-3-(trifluoromethyl)phenyl)-2,4-dioxoimidazolidin-1-yl)but-2-en-1-yl)-1H-pyrazol-4-yl)-2-(trifluoromethyl)benzonitrile] is “no measurable IC50”. One may read the solubility as the dissolved amount per volume that the medium holds. Read a high solubility as much dissolved substance. As for `CC1(C)C(=O)N(c2cnc(C#N)c(C(F)(F)F)c2)C(=O)N1C/C=C\Cn1cc(-c2ccc(S(C)(=O)=O)c(C(F)(F)F)c2)cn1` [Example 4, (Z)-5-(4,4-dimethyl-3-(4-(4-(4-(methylsulfonyl)-3-(trifluoromethyl)phenyl)-1H-pyrazol-1-yl)but-2-en-1-yl)-2,5-dioxoimidazolidin-1-yl)-3-(trifluoromethyl)picolinonitrile], in data set [1], the “IC50 on DU145 cells” value is “no measurable IC50”. The compound further showed a solubility at 1 h in data set [2] of 1.7 µM (≈ 1.09 µg/mL). Regarding `CC1(C)C(=O)N(c2cnc(C#N)c(C(F)(F)F)c2)C(=O)N1C/C=C\Cn1cc(-c2ccc(S(C)(=O)=O)c(Cl)c2)cn1` [Example 5, (Z)-5-(3-(4-(4-(3-chloro-4-(methylsulfonyl)phenyl)-1H-pyrazol-1-yl)but-2-en-1-yl)-4,4-dimethyl-2,5-dioxoimidazolidin-1-yl)-3-(trifluoromethyl)picolinonitrile], the “IC50 on DU145 cells” value in data set [1] is listed as “no measurable IC50”. For the same compound, the solubility at 1 h in data set [2] worked out at 0.65 µM (≈ 0.395 µg/mL). Taken in the same sequence, the figures for `Cc1nn(C/C=C\CN2C(=O)N(c3ccc(C#N)c(C(F)(F)F)c3)C(=O)C2(C)C)c(C)c1-c1ccc(S(C)(=O)=O)c(C(F)(F)F)c1` [Example 6, (Z)-4-(3-(4-(3,5-dimethyl-4-(4-(methylsulfonyl)-3-(trifluoromethyl)phenyl)-1H-pyrazol-1-yl)but-2-en-1-yl)-4,4-dimethyl-2,5-dioxoimidazolidin-1-yl)-2-(trifluoromethyl)benzonitrile] were “no measurable IC50” and 4.38 µM (≈ 2.92 µg/mL). `CC1(C)CN(c2ccc(S(C)(=O)=O)c(C(F)(F)F)c2)C(=O)N1C/C=C\CN1C(=O)N(c2ccc(C#N)c(C(F)(F)F)c2)C(=O)C1(C)C` [Example 7, (Z)-4-(3-(4-(5,5-dimethyl-3-(4-(methylsulfonyl)-3-(trifluoromethyl)phenyl)-2-oxoimidazolidin-1-yl)but-2-en-1-yl)-4,4-dimethyl-2,5-dioxoimidazolidin-1-yl)-2-(trifluoromethyl)benzonitrile]: the “IC50 on DU145 cells” value in data set [1] was “no measurable IC50”. Besides, in data set [3] (setting [4]), the IC50 is below 1.5 µM. On to `CC1(C)CN(c2ccc(S(C)(=O)=O)c(C(F)(F)F)c2)C(=O)N1C/C=C\CN1C(=O)N(c2ccc(S(C)(=O)=O)c(Cl)c2)C(=O)C1(C)C` [Example 8, (Z)-3-(3-chloro-4-(methylsulfonyl)phenyl)-1-(4-(5,5-dimethyl-3-(4-(methylsulfonyl)-3-(trifluoromethyl)phenyl)-2-oxoimidazolidin-1-yl)but-2-en-1-yl)-5,5-dimethylimidazolidine-2,4-dione], for which the “IC50 on DU145 cells” value in data set [1] is on record as “no measurable IC50”.

For the compound `CC1(C)CN(c2ccc(C#N)c(C(F)(F)F)c2)C(=O)N1C/C=C\CN1C(=O)N(c2ccc(S(C)(=O)=O)c(C(F)(F)F)c2)C(=O)C1(C)C` [Example 9, (Z)-4-(3-(4-(5,5-dimethyl-3-(4-(methylsulfonyl)-3-(trifluoromethyl)phenyl)-2,4-dioxoimidazolidin-1-yl)but-2-en-1-yl)-4,4-dimethyl-2-oxoimidazolidin-1-yl)-2-(trifluoromethyl)benzonitrile], the “IC50 on DU145 cells” value in data set [1] was “no measurable IC50”. Further, in data set [3] (setting [5]), the IC50 was below 1.5 µM.

For `CC1(C)C(=O)N(c2ccc(C#N)c(C(F)(F)F)c2)C(=O)N1C/C=C\CN1CCN(c2ccc(S(C)(=O)=O)c(Cl)c2)C1=O` [Example 11, (Z)-4-(3-(4-(3-(3-chloro-4-(methylsulfonyl)phenyl)-2-oxoimidazolidin-1-yl)but-2-en-1-yl)-4,4-dimethyl-2,5-dioxoimidazolidin-1-yl)-2-(trifluoromethyl)benzonitrile], the “IC50 on DU145 cells” value in data set [1] was “no measurable IC50”. The compound also displayed a solubility at 1 h in data set [2] of 0.34 µM (≈ 0.212 µg/mL). In data set [3] (setting [5]), the IC50 is below 1.5 µM. Take `CC1(C)C(=O)N(c2ccc(S(C)(=O)=O)c(C(F)(F)F)c2)C(=O)N1C/C=C\CN1CC(c2ccc(S(C)(=O)=O)c(C(F)(F)F)c2)CC1=O` (stereo not drawn) [Example 15, (Z)-5,5-dimethyl-3-(4-(methylsulfonyl)-3-(trifluoromethyl)phenyl)-1-(4-(4-(4-(methylsulfonyl)-3-(trifluoromethyl)phenyl)-2-oxopyrrolidin-1-yl)but-2-en-1-yl)imidazolidine-2,4-dione]: in data set [1], the “IC50 on DU145 cells” value is reported as “no measurable IC50”. Besides, the solubility at 1 h in data set [2] came out at 1.9 µM (≈ 1.34 µg/mL). In data set [3] (setting [4]), the IC50 was below 1.5 µM. On to `CC1(C)C(=O)N(c2ccc(S(C)(=O)=O)c(Cl)c2)C(=O)N1C/C=C\CN1CCC(O)(c2ccc(C#N)c(C(F)(F)F)c2)C1` (stereo not drawn) [Example 16, (Z)-4-(1-(4-(3-(3-chloro-4-(methylsulfonyl)phenyl)-5,5-dimethyl-2,4-dioxoimidazolidin-1-yl)but-2-en-1-yl)-3-hydroxypyrrolidin-3-yl)-2-(trifluoromethyl)benzonitrile], for which the “IC50 on DU145 cells” value in data set [1] is on record as “no measurable IC50”. In addition, the IC50 in data set [3] (setting [4]) was below 1.5 µM. Consider `CC1(C)C(=O)N(c2ccc(C#N)c(C(F)(F)F)c2)C(=O)N1C/C=C\CN1CCN(c2ccc(S(C)(=O)=O)c(Cl)c2)S1(=O)=O` [Example 17, (Z)-4-(3-(4-(5-(3-chloro-4-(methylsulfonyl)phenyl)-1,1-dioxido-1,2,5-thiadiazolidin-2-yl)but-2-en-1-yl)-4,4-dimethyl-2,5-dioxoimidazolidin-1-yl)-2-(trifluoromethyl)benzonitrile], for which the “IC50 on DU145 cells” value in data set [1] is listed as “no measurable IC50”. The same compound gave a solubility at 1 h in data set [2] of 1.97 µM (≈ 1.3 µg/mL). Moreover, in data set [3] (setting [5]), the IC50 was below 1.5 µM.

On to `CC1(C)C(=O)N(c2ccc(C#N)c(C(F)(F)F)c2)C(=O)N1C/C=C\Cn1cnc(-c2ccc(S(C)(=O)=O)c(C(F)(F)F)c2)c1` [Example 18, (Z)-4-(4,4-dimethyl-3-(4-(4-(4-(methylsulfonyl)-3-(trifluoromethyl)phenyl)-1H-imidazol-1-yl)but-2-en-1-yl)-2,5-dioxoimidazolidin-1-yl)-2-(trifluoromethyl)benzonitrile], for which the IC50 in data set [3] (setting [4]) is below 1.5 µM.

Regarding `CC1(C)C(=O)N(c2ccc(C#N)c(C(F)(F)F)c2)C(=O)N1C/C=C\Cn1cc(-c2ccccc2)nn1` [Example 19, (Z)-4-(4,4-dimethyl-2,5-dioxo-3-(4-(4-phenyl-1H-1,2,3-triazol-1-yl)but-2-en-1-yl)imidazolidin-1-yl)-2-(trifluoromethyl)benzonitrile], the IC50 in data set [3] (setting [4]) is below 1.5 µM.

On to `CC1(C)C(=O)N(c2ccc(C#N)c(C(F)(F)F)c2)C(=O)N1C/C=C\Cn1cc(-c2ccc(C#N)c(C(F)(F)F)c2)nn1` [Example 22, (Z)-4-(3-(4-(4-(4-cyano-3-(trifluoromethyl)phenyl)-1H-1,2,3-triazol-1-yl)but-2-en-1-yl)-4,4-dimethyl-2,5-dioxoimidazolidin-1-yl)-2-(trifluoromethyl)benzonitrile], for which the IC50 in data set [3] (setting [4]) was below 1.5 µM.

The values are drawn from patent US9975880B2, “Imidazolidine-2,4-dione dervatives” (IPSEN PHARMA S.A.S., priority 2013, dated 2018).
